Laboratory results from ChEMBL document CHEMBL1201862, “PubChem BioAssay data set” (2004).
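Tested at 5 concentrations; 48 h exposure; 96-well plates; endpoints linearly interpolated, else capped at highest concentration. GI50: concentration for 50% inhibition of growth.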 The source made the active and inactive calls. Rule as the data show it: active = GI50 up to about 1.1 µM and inactive = higher.

How the values were obtained:
Experiment in all cases: NCI tumour cell line growth inhibition, 48 h
786-0 = test system: 786-0
SW-620 = test system: SW-620
SNB-75 = test system: SNB-75
UACC-62 = test system: UACC-62
NCI-H522 = test system: NCI-H522
HOP-62 = test system: HOP-62
IGROV-1 = test system: IGROV-1
UO-31 = test system: UO-31
M14 = test system: M14
OVCAR-3 = test system: OVCAR-3
NCI-H23 = test system: NCI-H23
COLO 205 = test system: COLO 205
CAKI-1 = test system: CAKI-1
SF-295 = test system: SF-295
LOX IMVI = test system: LOX IMVI
RXF 393 = test system: RXF 393
CCRF-CEM = test system: CCRF-CEM
SK-MEL-28 = test system: SK-MEL-28
MOLT-4 = test system: MOLT-4
OVCAR-5 = test system: OVCAR-5

Measured: GI50

CN(C)CCCCN1CCc2c(n(C)c3ccccc23)C1=O
inactive: 786-0 61.1 µM | SW-620 44.4 µM | SNB-75 34.1 µM | UACC-62 26 µM | NCI-H522 55.3 µM | HOP-62 51.3 µM | IGROV-1 > 72.6 µM | UO-31 56.9 µM | M14 18.5 µM | OVCAR-3 > 78.9 µM | NCI-H23 82 µM | COLO 205 35.3 µM | CAKI-1 > 55.8 µM | SF-295 48.4 µM | LOX IMVI 25.9 µM | RXF 393 31.5 µM | CCRF-CEM 67.9 µM | SK-MEL-28 20.3 µM | MOLT-4 48.1 µM

CCOc1ccccc1-c1nc2c(s1)C(=O)c1ccccc1C2=O
inactive: 786-0 16.9 µM | SW-620 8 µM | SNB-75 11.4 µM | UACC-62 3.78 µM | NCI-H522 11.8 µM | HOP-62 15.4 µM | IGROV-1 12.2 µM | UO-31 12.6 µM | M14 15.7 µM | OVCAR-3 2.25 µM | NCI-H23 10.5 µM | COLO 205 24.7 µM | CAKI-1 12.2 µM | OVCAR-5 19.7 µM | SF-295 12.6 µM | LOX IMVI 4.37 µM | RXF 393 16 µM | SK-MEL-28 16.7 µM | MOLT-4 3.53 µM

O=C(/C=C1\Nc2ccc([N+](=O)[O-])cc2N=C1NC12CC3CC(CC(C3)C1)C2)c1ccccc1
inactive: 786-0 4.21 µM | SW-620 > 10 µM | SNB-75 > 10 µM | NCI-H522 > 10 µM | HOP-62 > 10 µM | IGROV-1 > 10 µM | UO-31 > 10 µM | M14 > 10 µM | OVCAR-3 > 10 µM | NCI-H23 > 10 µM | COLO 205 > 10 µM | CAKI-1 > 10 µM | OVCAR-5 > 10 µM | SF-295 > 10 µM | LOX IMVI > 10 µM | RXF 393 6.53 µM | SK-MEL-28 > 10 µM

Cn1c(=O)c2c(nc(C[N+]3([O-])CCOCC3)n2C)n(C)c1=O
inactive: 786-0 > 100 µM | SW-620 > 100 µM | SNB-75 63.5 µM | UACC-62 > 100 µM | NCI-H522 > 100 µM | HOP-62 > 100 µM | IGROV-1 > 100 µM | UO-31 > 100 µM | M14 > 100 µM | OVCAR-3 > 100 µM | NCI-H23 > 100 µM | COLO 205 > 100 µM | CAKI-1 36.9 µM | OVCAR-5 > 100 µM | LOX IMVI > 100 µM | RXF 393 > 100 µM | CCRF-CEM > 100 µM | SK-MEL-28 > 100 µM | MOLT-4 > 100 µM

CCCNC(=O)C1C(=O)C(=O)N(CCC)C1=O (centres undefined)
inactive: 786-0 > 100 µM | SW-620 > 100 µM | SNB-75 > 100 µM | UACC-62 > 100 µM | NCI-H522 > 100 µM | HOP-62 > 100 µM | IGROV-1 > 100 µM | UO-31 > 100 µM | M14 > 100 µM | OVCAR-3 > 100 µM | NCI-H23 > 100 µM | COLO 205 > 100 µM | CAKI-1 > 100 µM | OVCAR-5 56.9 µM | LOX IMVI > 100 µM | RXF 393 > 100 µM | CCRF-CEM > 100 µM | SK-MEL-28 > 100 µM | MOLT-4 > 100 µM

OC(c1ccccc1Br)(c1ccccc1Br)C(F)(F)F
inactive: 786-0 19.1 µM | SW-620 19.4 µM | SNB-75 33 µM | UACC-62 26.8 µM | NCI-H522 11.6 µM | HOP-62 28 µM | IGROV-1 40.4 µM | UO-31 26.7 µM | M14 34.7 µM | OVCAR-3 26.9 µM | NCI-H23 27.9 µM | COLO 205 18.2 µM | CAKI-1 48.1 µM | OVCAR-5 25.4 µM | SF-295 21.1 µM | LOX IMVI 20.9 µM | RXF 393 19.6 µM | SK-MEL-28 27.7 µM | MOLT-4 14.9 µM

O=[N+]([O-])C(=C(NCc1ccccc1)NCc1ccccc1)C(Cl)=C(Cl)Cl
inactive: 786-0 43.6 µM | SW-620 36.9 µM | SNB-75 2.1 µM | UACC-62 30.9 µM | NCI-H522 37 µM | HOP-62 > 100 µM | IGROV-1 34 µM | UO-31 25.3 µM | M14 26 µM | OVCAR-3 21.6 µM | NCI-H23 38.4 µM | COLO 205 19.4 µM | CAKI-1 10.7 µM | SF-295 24.5 µM | LOX IMVI 17.4 µM | RXF 393 28 µM | CCRF-CEM 23.1 µM | SK-MEL-28 61.2 µM | MOLT-4 23.1 µM

CCCCCCCCCCCCCCCCOCC(Cl)CP(=O)(O)OP(=O)(O)OCC1OC(n2cnc3c(N)ncnc32)C(O)C1O (centres undefined)
inactive: 786-0 > 100 µM | SW-620 > 100 µM | SNB-75 > 100 µM | UACC-62 > 100 µM | NCI-H522 > 100 µM | HOP-62 > 100 µM | IGROV-1 > 100 µM | UO-31 > 100 µM | M14 > 100 µM | OVCAR-3 > 100 µM | NCI-H23 > 100 µM | COLO 205 > 100 µM | CAKI-1 > 100 µM | OVCAR-5 > 100 µM | LOX IMVI > 100 µM | RXF 393 61.8 µM | CCRF-CEM > 100 µM | SK-MEL-28 > 100 µM | MOLT-4 > 100 µM

CCC(CCCCC1CC[C@H]2CC(=O)C[C@@H]12)OC (some centres undefined)
inactive: 786-0 > 100 µM | SW-620 > 100 µM | SNB-75 > 100 µM | NCI-H522 > 100 µM | IGROV-1 > 100 µM | OVCAR-3 > 100 µM | NCI-H23 > 100 µM | COLO 205 > 100 µM | CAKI-1 > 100 µM | OVCAR-5 > 100 µM | SF-295 > 100 µM | LOX IMVI > 100 µM | RXF 393 > 100 µM | CCRF-CEM 79.8 µM | SK-MEL-28 > 100 µM | MOLT-4 > 100 µM

Cc1cccc(N(CC(=O)O)S(=O)(=O)c2ccccc2)c1
inactive: 786-0 > 100 µM | SW-620 > 100 µM | SNB-75 > 100 µM | UACC-62 > 100 µM | NCI-H522 > 100 µM | IGROV-1 > 100 µM | UO-31 > 100 µM | M14 > 100 µM | OVCAR-3 > 100 µM | NCI-H23 > 100 µM | COLO 205 > 100 µM | CAKI-1 > 100 µM | OVCAR-5 > 100 µM | SF-295 > 100 µM | LOX IMVI > 100 µM | RXF 393 > 100 µM | CCRF-CEM > 100 µM | SK-MEL-28 > 100 µM | MOLT-4 > 100 µM

C=C1C(=O)O[C@@H]2/C=C(/C)[C@@H](OC(C)=O)C[C@@H](O)/C(C)=C\[C@@H](OC(=O)[C@]3(C)O[C@@H]3C)[C@@H]12
inactive: 786-0 4.57 µM | SW-620 5.98 µM | SNB-75 19.5 µM | UACC-62 16.1 µM | NCI-H522 1.28 µM | HOP-62 40.6 µM | IGROV-1 16.2 µM | M14 12.5 µM | OVCAR-3 11.6 µM | NCI-H23 17.3 µM | COLO 205 6.89 µM | CAKI-1 3.48 µM | OVCAR-5 18.6 µM | SF-295 50.9 µM | LOX IMVI 7.26 µM | RXF 393 15.5 µM | CCRF-CEM 2.38 µM | SK-MEL-28 10.9 µM | MOLT-4 3.91 µM
